US10407425B2, “Indazole inhibitors of the Wnt signal pathway and therapeutic uses thereof” (Samumed, LLC, priority 2012, dated 2019)

Tested on: Wnt activity
Assay: Wnt activity reporter assay (SP5 promoter firefly luciferase in SW480 cells)
Format: cell-based
Details: Homo sapiens; SW480 cells bearing SP5 promoter luciferase reporter; 24 h after compound addition; read-out: Wnt inhibition
Source text: The above synthesized compounds were screened using the assay procedure for Wnt activity described below.
Reporter cell lines can be generated by stably transducing cells of cancer cell lines (e.g., colon cancer) with a lentiviral construct that include a wnt-responsive promoter driving expression of the firefly luciferase gene.
Lentiviral constructs can be made in which the SP5 promoter, a promoter having eight TCF/LEF binding sites derived from the SP5 promoter, is linked upstream of the firefly luciferase gene. The lentiviral constructs can also include a hygromycin resistance gene as a selectable marker. The SP5 promoter construct can be used to transduce SW480 cells, a colon cancer cell line having a mutated APC gene that generates a truncated APC protein, leading to de-regulated accumulation of β-catenin.
Cultured SW480 cells bearing a reporter construct can be distributed at approximately 10,000 cells per well into 384 well multiwell plates. Compounds from a small molecule compound library can then be added to the wells in half-log dilutions using a three micromolar top concentration. A series of control wells for each cell type receive only buffer and compound solvent. Twenty-four hours after the addition of compound, reporter activity for luciferases can be assayed, for example, by addition of the BrightGlo luminescence reagent (Promega) and the Victor3 plate reader (Perkin Elmer). Readings can be normalized to DMSO only treated cells, and normalized activities can then be used in the IC50 calculations.

Compound	IC50
O=C(Cc1ccccc1)Nc1cncc(-c2ccc3[nH]nc(-c4nc5c(-c6ccoc6)cncc5[nH]4)c3c2)c1 [Compound 321, N-(5-(3-(7-(Furan-3-yl)-3H-imidazo[4,5-c]pyridin-2-yl)-1H-indazol-5-yl)pyridin-3-yl)-2-phenylacetamide]	33 nM
CN1CCN(c2cncc3[nH]c(-c4n[nH]c5ccc(-c6cncc(NC(=O)Cc7ccccc7)c6)cc45)nc23)CC1 [Compound 252, N-(5-(3-(7-(4-Methylpiperazin-1-yl)-3H-imidazo[4,5-c]pyridin-2-yl)-1H-indazol-5-yl)pyridin-3-yl)-2-phenylacetamide]	650 nM
O=C(Nc1cncc(-c2ccc3[nH]nc(-c4nc5c(-c6ccc(F)cc6)cncc5[nH]4)c3c2)c1)C1CCC1 [Compound 111, N-(5-(3-(7-(4-Fluorophenyl)-3H-imidazo[4,5-c]pyridin-2-yl)-1H-indazol-5-yl)pyridin-3-yl)cyclobutanecarboxamide]	6 nM
c1cncc(-c2ccc3[nH]nc(-c4nc5c(-c6ccoc6)cncc5[nH]4)c3c2)c1 [Compound 315, 7-(Furan-3-yl)-2-(5-(pyridin-3-yl)-1H-indazol-3-yl)-3H-imidazo[4,5-c]pyridine]	22 nM
CC(C)CC(=O)Nc1cncc(-c2ccc3[nH]nc(-c4nc5c(-c6cccc(F)c6)cncc5[nH]4)c3c2)c1 [Compound 10, N-(5-(3-(7-(3-fluorophenyl)-3H-imidazo[4,5-c]pyridin-2-yl)-1H-indazol-5-yl)pyridin-3-yl)-3-methylbutanamide]	3.4 to 9 nM
c1cc(-c2cncc3[nH]c(-c4n[nH]c5ccc(-c6cncc(CNCC7CCCC7)c6)cc45)nc23)ccn1 [Compound 173, 1-Cyclopentyl-N-((5-(3-(7-(pyridin-4-yl)-3H-imidazo[4,5-c]pyridin-2-yl)-1H-indazol-5-yl)pyridin-3-yl)methyl)methanamine]	845 nM
CC(C)(C)C(=O)Nc1cncc(-c2ccc3[nH]nc(-c4nc5c(-c6ccoc6)cncc5[nH]4)c3c2)c1 [Compound 319, N-(5-(3-(7-(Furan-3-yl)-3H-imidazo[4,5-c]pyridin-2-yl)-1H-indazol-5-yl)pyridin-3-yl)pivalamide]	5 nM
CC(C)(C)CC(=O)Nc1cncc(-c2ccc3[nH]nc(-c4nc5c(-c6ccsc6)cncc5[nH]4)c3c2)c1 [Compound 304, 3,3-Dimethyl-N-(5-(3-(7-(thiophen-3-yl)-3H-imidazo[4,5-c]pyridin-2-yl)-1H-indazol-5-yl)pyridin-3-yl)butanamide]	3 nM
c1ncc(-c2ccc3[nH]nc(-c4nc5c(N6CCCCC6)cncc5[nH]4)c3c2)cc1CN1CCCC1 [Compound 211, 7-(Piperidin-1-yl)-2-(5-(5-(pyrrolidin-1-ylmethyl)pyridin-3-yl)-1H-indazol-3-yl)-3H-imidazo[4,5-c]pyridine]	420 nM
c1cncc(-c2ccc3[nH]nc(-c4nc5c(-c6cccnc6)cncc5[nH]4)c3c2)c1 [Compound 136, 7-(Pyridin-3-yl)-2-(5-(pyridin-3-yl)-1H-indazol-3-yl)-3H-imidazo[4,5-c]pyridine]	35 nM
O=C(Nc1cncc(-c2ccc3[nH]nc(-c4nc5ccncc5[nH]4)c3c2)c1)C1CCCCC1 [Compound 286, N-(5-(3-(3H-Imidazo[4,5-c]pyridin-2-yl)-1H-indazol-5-yl)pyridin-3-yl)cyclohexanecarboxamide]	569 nM
c1cc(-c2cncc3[nH]c(-c4n[nH]c5ccc(-c6cncc(CN7CCCCC7)c6)cc45)nc23)ccn1 [Compound 164, 2-(5-(5-(Piperidin-1-ylmethyl)pyridin-3-yl)-1H-indazol-3-yl)-7-(pyridin-4-yl)-3H-imidazo[4,5-c]pyridine]	> 6000 nM
CN(C)c1cncc(-c2ccc3[nH]nc(-c4nc5c(-c6ccsc6)cncc5[nH]4)c3c2)c1 [Compound 295, N,N-Dimethyl-5-(3-(7-(thiophen-3-yl)-3H-imidazo[4,5-c]pyridin-2-yl)-1H-indazol-5-yl)pyridin-3-amine]	3 nM
Nc1cncc(-c2ccc3[nH]nc(-c4nc5c(-c6ccsc6)cncc5[nH]4)c3c2)c1 [Compound 291, 5-(3-(7-(Thiophen-3-yl)-3H-imidazo[4,5-c]pyridin-2-yl)-1H-indazol-5-yl)pyridin-3-amine]	2 nM
c1ccc(-c2cncc3[nH]c(-c4n[nH]c5ccc(-c6cccnc6)cc45)nc23)nc1 [Compound 177, 7-(Pyridin-2-yl)-2-(5-(pyridin-3-yl)-1H-indazol-3-yl)-3H-imidazo[4,5-c]pyridine]	2 nM
CN(C)Cc1cncc(-c2ccc3[nH]nc(-c4nc5c(-c6ccccn6)cncc5[nH]4)c3c2)c1 [Compound 186, N,N-Dimethyl-1-(5-(3-(7-(pyridin-2-yl)-3H-imidazo[4,5-c]pyridin-2-yl)-1H-indazol-5-yl)pyridin-3-yl)methanamine]	38 nM

Compound	IC50
CN1CCN(c2cncc(-c3ccc4[nH]nc(-c5nc6ccncc6[nH]5)c4c3)c2)CC1 [Compound 7, 2-(5-(5-(4-methylpiperazin-1-yl)pyridin-3-yl)-1H-indazol-3-yl)-3H-imidazo[4,5-c]pyridine]	214 to 463 nM
Fc1ccc(-c2cncc3[nH]c(-c4n[nH]c5ccc(-c6cncc(CN7CCCC7)c6)cc45)nc23)cc1 [Compound 107, 7-(4-Fluorophenyl)-2-(5-(5-(pyrrolidin-1-ylmethyl)pyridin-3-yl)-1H-indazol-3-yl)-3H-imidazo[4,5-c]pyridine]	52 nM
CN(C)Cc1cncc(-c2ccc3[nH]nc(-c4nc5c(-c6cccc(F)c6)cncc5[nH]4)c3c2)c1 [Compound 89, 1-(5-(3-(7-(3-Fluorophenyl)-3H-imidazo[4,5-c]pyridin-2-yl)-1H-indazol-5-yl)pyridin-3-yl)-N,N-dimethylmethanamine]	> 10000 nM
O=C(Nc1cncc(-c2ccc3[nH]nc(-c4nc5ccncc5[nH]4)c3c2)c1)C1CC1 [Compound 283, N-(5-(3-(3H-Imidazo[4,5-c]pyridin-2-yl)-1H-indazol-5-yl)pyridin-3-yl)cyclopropanecarboxamide]	8 nM
Fc1cccc(-c2cncc3[nH]c(-c4n[nH]c5ccc(-c6cncc(CN7CCC(F)(F)C7)c6)cc45)nc23)c1 [Compound 336, 2-(5-(5-((3,3-Difluoropyrrolidin-1-yl)methyl)pyridin-3-yl)-1H-indazol-3-yl)-7-(3-fluorophenyl)-3H-imidazo[4,5-c]pyridine]	55 nM
Cc1ccncc1-c1ccc2[nH]nc(-c3nc4c(-c5ccncc5)cncc4[nH]3)c2c1 [Compound 154, 2-(5-(4-Methylpyridin-3-yl)-1H-indazol-3-yl)-7-(pyridin-4-yl)-3H-imidazo[4,5-c]pyridine]	373 nM
c1cncc(-c2ccc3[nH]nc(-c4nc5c(N6CCOCC6)cncc5[nH]4)c3c2)c1 [Compound 6, 4-(2-(5-(pyridin-3-yl)-1H-indazol-3-yl)-3H-imidazo[4,5-c]pyridin-7-yl)morpholine]	10 to 13 nM
Nc1cncc(-c2ccc3[nH]nc(-c4nc5c(-c6ccc(F)cc6)cncc5[nH]4)c3c2)c1 [Compound 97, 5-(3-(7-(4-Fluorophenyl)-3H-imidazo[4,5-c]pyridin-2-yl)-1H-indazol-5-yl)pyridin-3-amine]	1 nM
CN1CCN(c2cncc3[nH]c(-c4n[nH]c5ccc(-c6cncc(NC(=O)CC(C)(C)C)c6)cc45)nc23)CC1 [Compound 257, 3,3-Dimethyl-N-(5-(3-(7-(4-methylpiperazin-1-yl)-3H-imidazo[4,5-c]pyridin-2-yl)-1H-indazol-5-yl)pyridin-3-yl)butanamide]	95 nM
CC(C)CC(=O)Nc1cncc(-c2ccc3[nH]nc(-c4nc5c(N6CCN(C)CC6)cncc5[nH]4)c3c2)c1 [Compound 1, 3-methyl-N-(5-(3-(7-(4-methylpiperazin-1-yl)-3H-imidazo[4,5-c]pyridin-2-yl)-1H-indazol-5-yl)pyridin-3-yl)butanamide]	140 to 150 nM
O=C(Nc1cncc(-c2ccc3[nH]nc(-c4nc5c(-c6ccncc6)cncc5[nH]4)c3c2)c1)C1CCCC1 [Compound 170, N-(5-(3-(7-(Pyridin-4-yl)-3H-imidazo[4,5-c]pyridin-2-yl)-1H-indazol-5-yl)pyridin-3-yl)cyclopentanecarboxamide]	7000 nM
FC1(F)CCN(Cc2cncc(-c3ccc4[nH]nc(-c5nc6c(-c7cccnc7)cncc6[nH]5)c4c3)c2)C1 [Compound 339, 2-(5-(5-((3,3-Difluoropyrrolidin-1-yl)methyl)pyridin-3-yl)-1H-indazol-3-yl)-7-(pyridin-3-yl)-3H-imidazo[4,5-c]pyridine]	39 nM
Cc1ccncc1-c1ccc2[nH]nc(-c3nc4c(-c5ccsc5)cncc4[nH]3)c2c1 [Compound 293, 2-(5-(4-Methylpyridin-3-yl)-1H-indazol-3-yl)-7-(thiophen-3-yl)-3H-imidazo[4,5-c]pyridine]	191 nM
CCC(=O)Nc1cncc(-c2ccc3[nH]nc(-c4nc5c(-c6ccccn6)cncc5[nH]4)c3c2)c1 [Compound 174, N-(5-(3-(7-(Pyridin-2-yl)-3H-imidazo[4,5-c]pyridin-2-yl)-1H-indazol-5-yl)pyridin-3-yl)propionamide]	3 nM
CC(C)C(=O)Nc1cncc(-c2ccc3[nH]nc(-c4nc5ccncc5[nH]4)c3c2)c1 [Compound 9, N-(5-(3-(3H-imidazo[4,5-c]pyridin-2-yl)-1H-indazol-5-yl)pyridin-3-yl)isobutyramide]	400 to 630 nM
